Test results as given in publication PMC8459971, “Evaluation of the hepatotoxicity of the novel GPR40 (FFAR1) agonist CPL207280 in the rat and monkey” (PLoS ONE, 2021).
“And” between values parts separate entries of the source, which are not always exact repeats. Identical values can stand only once.

Tests used:
MRP3 = MRP3 (Homo sapiens, UniProt O15438); experiment: Vesicular transport inhibition assay, MRP3; details: MRP3; reference inhibitor 150 µM;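 note: membrane vesicles with radiolabelled probe substrate and 2 mM glutathione, 4 mM ATP versus AMP background control, vesicle-trapped substrate quantified by liquid scintillation counting after filtration; ATP 4 mM vs AMP background separates transporter uptake from diffusion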
Method: (§2) In the vesicular transport inhibition assay (for BSEP, MRP) compounds were incubated with membrane vesicle preparations and the probe substrate. Incubations were carried out in the presence of 4 mM ATP or AMP to distinguish between transporter-mediated uptake and passive diffusion into the vesicles. For MRP2 and MRP3, reactions were carried out in the presence of 2 mM glutathione. Compounds were added to the reaction mixture in 0.75 μL of solvent (1% of the final incubation volume). […] Reactions were initiated by the addition of 25 μL of 12 mM MgATP (or 12 mM AMP in assay buffer as a background control) and preincubated separately. Reactions were quenched by the addition of 200 μL of ice-cold washing buffer and immediate filtration via glass fiber filters mounted on a 96-well plate (filter plate). The filters were washed (5 × 200 μL of ice-cold washing buffer), dried, and the amount of substrate inside the filtered vesicles was determined by liquid scintillation counting.

MRP4 = target: T1, MRP4 (Homo sapiens, UniProt O15439); experiment: Vesicular transport inhibition assay, MRP4; details: MRP4; reference inhibitor 150 µM;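 note: membrane vesicles with MRP4 incubated with compound and probe substrate plus 4 mM ATP, or AMP as passive-diffusion background, vesicular substrate uptake read by liquid scintillation counting; ATP 4 mM vs AMP background separates transporter uptake from diffusion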
T1 sequence (O15439 1-1325): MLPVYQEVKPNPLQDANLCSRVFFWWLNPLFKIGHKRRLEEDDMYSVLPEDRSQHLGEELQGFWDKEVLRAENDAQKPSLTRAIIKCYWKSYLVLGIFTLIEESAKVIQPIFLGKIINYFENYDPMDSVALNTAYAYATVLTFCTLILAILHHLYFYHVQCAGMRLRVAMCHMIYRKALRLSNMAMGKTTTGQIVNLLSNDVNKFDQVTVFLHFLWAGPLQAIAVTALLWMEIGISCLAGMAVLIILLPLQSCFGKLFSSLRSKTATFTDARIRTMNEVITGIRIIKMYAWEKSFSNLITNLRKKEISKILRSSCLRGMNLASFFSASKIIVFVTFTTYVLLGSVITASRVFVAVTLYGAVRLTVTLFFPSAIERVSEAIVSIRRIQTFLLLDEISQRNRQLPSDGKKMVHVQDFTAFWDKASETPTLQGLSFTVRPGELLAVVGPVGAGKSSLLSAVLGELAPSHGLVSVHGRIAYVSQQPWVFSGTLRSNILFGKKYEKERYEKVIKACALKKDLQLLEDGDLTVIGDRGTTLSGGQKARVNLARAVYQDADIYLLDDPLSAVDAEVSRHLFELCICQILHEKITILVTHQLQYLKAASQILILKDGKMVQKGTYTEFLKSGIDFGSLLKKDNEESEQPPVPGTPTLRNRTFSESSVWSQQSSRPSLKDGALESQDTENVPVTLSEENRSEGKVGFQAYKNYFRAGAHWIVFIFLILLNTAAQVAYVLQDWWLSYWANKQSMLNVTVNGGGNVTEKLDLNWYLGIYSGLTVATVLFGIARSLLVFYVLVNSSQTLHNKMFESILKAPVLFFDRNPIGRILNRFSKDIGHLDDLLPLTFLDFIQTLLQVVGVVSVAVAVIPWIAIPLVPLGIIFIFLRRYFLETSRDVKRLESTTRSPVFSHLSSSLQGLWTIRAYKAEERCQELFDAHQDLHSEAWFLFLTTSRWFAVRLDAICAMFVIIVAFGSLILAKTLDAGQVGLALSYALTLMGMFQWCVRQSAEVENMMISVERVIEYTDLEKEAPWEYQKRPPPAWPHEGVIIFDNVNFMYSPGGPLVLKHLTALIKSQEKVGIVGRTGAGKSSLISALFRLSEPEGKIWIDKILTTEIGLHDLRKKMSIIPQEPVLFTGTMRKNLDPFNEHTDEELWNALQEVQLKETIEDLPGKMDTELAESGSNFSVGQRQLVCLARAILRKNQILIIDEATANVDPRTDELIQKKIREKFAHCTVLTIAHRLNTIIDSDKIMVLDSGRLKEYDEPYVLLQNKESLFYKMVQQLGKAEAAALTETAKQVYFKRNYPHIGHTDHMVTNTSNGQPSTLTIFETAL
Method: as §2

[1] = Metabolite profiling, human hepatocytes; assay type: in vitro ADME; details: human hepatocytes, 10 μM CPL207280, 60 min; ND = not detected
Method: (§1) Suspensions of cryopreserved human, rat, and monkey hepatocytes were pooled from a minimum of three individuals. All cryopreserved hepatocytes were purchased from a commercial supplier. […] The cell density was 0.5 ×10^6 viable cells/mL. The final DMSO concentration during the incubation was 0.25%. Control incubations were performed in lysed cells to reveal any non-enzymatic degradation. Two control compounds were identified in each species. Samples (50 μL) were removed from the incubation mixture at 0, 10, 20, 40, 60, and 120 min and added to methanol containing an internal standard (100 μL) to stop the reaction. The samples were centrifuged (4000 x g at 4°C for 30 min) and the supernatants at each time point were pooled for analysis by LC MS/MS using Cyprotex generic methods. Following hepatocyte stability assays, the samples were utilized for metabolite profiling. […] Metabolites were characterized using a mass spectrometer comprising Waters Xevo QT of G2-S, Acquity Binary Solvent Manager, Acquity Column Manager, and 2777 Autosampler.

[2] = Metabolite profiling, rat hepatocytes; assay type: in vitro ADME; details: 10 μM CPL207280, 120 min, ND = not detected
Method: as §1

MRP3, sequence (O15438 whole entry, the tested form may be a part): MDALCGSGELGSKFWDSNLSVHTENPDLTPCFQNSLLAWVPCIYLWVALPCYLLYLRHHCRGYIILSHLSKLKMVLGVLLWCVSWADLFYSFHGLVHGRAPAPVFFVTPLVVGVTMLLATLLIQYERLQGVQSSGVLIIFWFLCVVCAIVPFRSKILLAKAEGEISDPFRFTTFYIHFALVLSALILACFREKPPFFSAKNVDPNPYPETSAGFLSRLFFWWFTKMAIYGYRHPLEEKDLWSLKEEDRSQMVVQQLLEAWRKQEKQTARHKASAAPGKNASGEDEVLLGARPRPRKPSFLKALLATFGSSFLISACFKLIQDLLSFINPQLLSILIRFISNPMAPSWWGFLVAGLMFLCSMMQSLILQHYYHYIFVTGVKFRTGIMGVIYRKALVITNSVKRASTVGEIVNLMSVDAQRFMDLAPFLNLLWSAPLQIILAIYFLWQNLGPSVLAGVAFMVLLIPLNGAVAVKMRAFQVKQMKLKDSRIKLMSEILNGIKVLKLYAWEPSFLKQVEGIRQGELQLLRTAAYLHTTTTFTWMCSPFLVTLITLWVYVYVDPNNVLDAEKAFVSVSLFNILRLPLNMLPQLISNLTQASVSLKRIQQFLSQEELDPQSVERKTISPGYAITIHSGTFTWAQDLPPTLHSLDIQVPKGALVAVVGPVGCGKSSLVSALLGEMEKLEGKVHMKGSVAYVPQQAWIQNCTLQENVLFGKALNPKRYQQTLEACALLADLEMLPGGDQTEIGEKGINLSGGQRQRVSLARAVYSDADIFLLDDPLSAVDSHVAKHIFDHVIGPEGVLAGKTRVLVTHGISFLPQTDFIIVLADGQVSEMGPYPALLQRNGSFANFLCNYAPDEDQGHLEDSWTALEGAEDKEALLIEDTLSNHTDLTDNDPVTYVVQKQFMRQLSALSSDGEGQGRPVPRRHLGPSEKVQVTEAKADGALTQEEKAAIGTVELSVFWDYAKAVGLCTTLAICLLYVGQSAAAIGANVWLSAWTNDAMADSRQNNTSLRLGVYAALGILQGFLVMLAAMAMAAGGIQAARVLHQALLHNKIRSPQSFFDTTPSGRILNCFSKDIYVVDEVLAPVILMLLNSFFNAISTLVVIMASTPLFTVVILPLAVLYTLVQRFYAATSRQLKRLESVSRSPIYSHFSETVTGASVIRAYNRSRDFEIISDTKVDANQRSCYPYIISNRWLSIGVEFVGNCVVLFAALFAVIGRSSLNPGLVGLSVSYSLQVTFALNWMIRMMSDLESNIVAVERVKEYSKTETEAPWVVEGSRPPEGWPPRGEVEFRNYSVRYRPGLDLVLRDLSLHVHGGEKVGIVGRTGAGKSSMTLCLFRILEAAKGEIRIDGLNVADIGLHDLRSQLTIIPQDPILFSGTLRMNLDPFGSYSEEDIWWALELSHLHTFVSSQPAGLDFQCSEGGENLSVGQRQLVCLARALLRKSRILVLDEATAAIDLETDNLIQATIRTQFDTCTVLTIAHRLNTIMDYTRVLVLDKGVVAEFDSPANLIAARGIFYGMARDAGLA

| Compound | Accumulation (counts per minute; CPM) with AMP (MRP3) | Accumulation (counts per minute; CPM) with ATP (MRP3) | Accumulation (counts per minute; CPM) with AMP (MRP4) | Accumulation (counts per minute; CPM) with ATP (MRP4) | human % of parent at 60 min [1] | rat % of parent at 120 min [2] |
| --- | --- | --- | --- | --- | --- | --- |
| CN(C)C(=O)CCSC(SCCC(=O)O)c1cccc(/C=C/c2ccc3ccc(Cl)cc3n2)c1 (stereo not drawn) [MK571] | 193 CPM and 200 CPM and 153 CPM and 106 CPM | 299 CPM and 302 CPM and 151 CPM and 183 CPM | 1227 CPM and 1197 CPM | 1356 CPM and 1304 CPM |  |  |
| CC#CC(CC(=O)OC1OC(C(=O)O)C(O)C(O)C1O)c1ccc(OCC(C)=C(C)C)cc1 (stereo not drawn) [M15] |  |  |  |  | 1.44% | 2.88% |
